Experimental data: patent US6747148B2, “Sulfonamide derivatives as inhibitors of bone resorption and as inhibitors of cell adhesion” (Hoechst Marion Roussel Deutschland GmbH, priority 1998, dated 2004)

Biological target: T1, vitronectin receptor αvβ3 (Homo sapiens, UniProt P05106+P06756)
T1 construct: expressed in transfected cells
Assay: Inhibition of binding of 293 cells to human vitronectin (Vn/293 cell test)
Type: cell-based
Conditions: 293 cells cotransfected with αv and β3 subunits; plate coated with human vitronectin; 90 minutes at 37° C.
Excerpt: Test for the Measurement of the Inhibition of Binding of 293 Cells to Human Vitronectin (Vn/293 Cell Test)
1. Purification of Human Vitronectin
Human vitronectin is isolated from human plasma and purified by affinity chromatography according to the method of Yatohyo et al., Cell Structure and Function […]: 281-292 (1988).
293 cells, a human embryonic kidney cell line, which are cotransfected with DNA sequences for the αv and β3 subunits of the vitronectin receptor αvβ3, are selected for a high rate of expression (>500,000 αvβ3 receptors/cell) according to the FACS method. The selected cells are cultured and sorted again by means of FACS in order to obtain a stable cell line (15 D) with expression rates >1,000,000 copies of αvβ3 per cell.
A Linbro 96-well tissue culture plate with a flat bottom is coated overnight at 4° C. with human vitronectin (0.01 mg/ml, 0.05 ml/well) in phosphate-buffered saline solution (PBS) and then blocked with 0.5% strength BSA (bovine serum albumin). Solutions of the test substances from 10^−10 mol/l to 2×10^−3 mol/l in glucose-containing DMEM medium are prepared and 0.05 ml/well of the solution are added to the plate in each case. The cells which express high levels of αvβ3 (for example 15 D) are suspended in glucose-containing DMEM medium and the suspension is adjusted to a content of 25,000 cells/0.05 ml of medium. 0.05 ml of this cell suspension is added to each well and the plate is incubated at 37° C. for 90 minutes. The plate is washed three times with warm PBS in order to remove unbound cells. The bound cells are lyzed in citrate buffer (25 mM, pH 5.0) which contains 0.25% Triton X-100. The hexoseamidase substrate p-nitrophenyl-N-acetyl-β-D-glucosaminide is then added and the plate is incubated at 37° C. for 90 minutes. The reaction is stopped with a glycine (50 mM)/EDTA (5 mM) buffer (ph 10.4), and the absorption of each well is measured at 405-650 nm. The data are analyzed according to standard processes.

T1 sequence (P06756 31-889 limits assumed): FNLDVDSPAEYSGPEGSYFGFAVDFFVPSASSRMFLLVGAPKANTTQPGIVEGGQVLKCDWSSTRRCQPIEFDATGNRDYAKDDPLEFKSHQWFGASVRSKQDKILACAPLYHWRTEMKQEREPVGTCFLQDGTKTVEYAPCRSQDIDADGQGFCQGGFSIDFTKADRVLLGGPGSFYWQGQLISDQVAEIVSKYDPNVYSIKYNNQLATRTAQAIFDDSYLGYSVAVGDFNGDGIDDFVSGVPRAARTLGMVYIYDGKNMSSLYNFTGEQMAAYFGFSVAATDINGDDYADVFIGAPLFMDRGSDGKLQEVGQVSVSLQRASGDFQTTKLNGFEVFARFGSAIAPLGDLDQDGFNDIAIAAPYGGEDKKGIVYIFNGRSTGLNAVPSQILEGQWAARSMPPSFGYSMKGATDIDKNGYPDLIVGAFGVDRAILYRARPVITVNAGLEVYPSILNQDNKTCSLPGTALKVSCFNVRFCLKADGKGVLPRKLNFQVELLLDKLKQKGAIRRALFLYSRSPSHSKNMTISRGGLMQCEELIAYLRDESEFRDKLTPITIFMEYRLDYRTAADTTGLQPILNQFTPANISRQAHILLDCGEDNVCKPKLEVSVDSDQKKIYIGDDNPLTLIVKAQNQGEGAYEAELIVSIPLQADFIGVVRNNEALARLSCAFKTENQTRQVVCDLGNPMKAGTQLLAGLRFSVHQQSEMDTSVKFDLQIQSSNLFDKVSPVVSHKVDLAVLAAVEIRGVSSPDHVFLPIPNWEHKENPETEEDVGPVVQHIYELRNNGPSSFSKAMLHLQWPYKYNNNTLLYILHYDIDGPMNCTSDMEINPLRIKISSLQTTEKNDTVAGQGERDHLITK
T1 sequence (P06756 891-1048 partner limits assumed): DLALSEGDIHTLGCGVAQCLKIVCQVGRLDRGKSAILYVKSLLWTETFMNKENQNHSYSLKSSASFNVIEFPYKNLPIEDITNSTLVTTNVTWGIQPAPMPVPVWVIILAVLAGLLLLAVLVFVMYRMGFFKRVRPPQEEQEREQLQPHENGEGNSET
T1 sequence (P05106 27-788): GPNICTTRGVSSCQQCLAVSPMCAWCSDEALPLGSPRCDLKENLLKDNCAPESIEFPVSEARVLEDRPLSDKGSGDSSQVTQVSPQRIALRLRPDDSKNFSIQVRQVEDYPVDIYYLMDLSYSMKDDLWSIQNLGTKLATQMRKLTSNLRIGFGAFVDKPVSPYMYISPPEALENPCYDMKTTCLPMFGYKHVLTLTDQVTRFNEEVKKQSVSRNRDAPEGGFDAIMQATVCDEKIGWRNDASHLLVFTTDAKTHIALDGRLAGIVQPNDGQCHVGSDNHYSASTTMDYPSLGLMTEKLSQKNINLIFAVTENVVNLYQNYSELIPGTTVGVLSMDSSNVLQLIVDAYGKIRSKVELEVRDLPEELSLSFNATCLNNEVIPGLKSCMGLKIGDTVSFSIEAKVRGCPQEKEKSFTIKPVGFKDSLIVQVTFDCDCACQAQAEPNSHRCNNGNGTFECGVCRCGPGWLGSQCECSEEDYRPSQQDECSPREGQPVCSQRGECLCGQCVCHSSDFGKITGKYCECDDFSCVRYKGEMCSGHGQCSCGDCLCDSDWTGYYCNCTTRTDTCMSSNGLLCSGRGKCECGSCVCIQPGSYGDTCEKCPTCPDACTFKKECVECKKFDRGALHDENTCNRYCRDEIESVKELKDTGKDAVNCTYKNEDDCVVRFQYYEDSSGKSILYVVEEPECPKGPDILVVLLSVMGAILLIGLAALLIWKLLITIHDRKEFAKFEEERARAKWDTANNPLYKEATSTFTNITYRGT

Compound	IC50 [nM]
CC(C)(C)c1ccc(S(=O)(=O)N[C@@H](CNC(=O)c2ccc(CCC(=O)NC3=NCCCN3)cc2)C(=O)O)cc1 [Example 5, (2S)-2-(4-tert-Butyl-benzenesulfonylamino)-3-(4-(2-(1,4,5,6-tetrahydropyrimidin-2-ylcarbamoyl)-ethyl)-benzoylamino)-propionic acid]	18
CCCS(=O)(=O)N[C@@H](CNC(=O)c1ccc(CCC(=O)NC2=NCCCN2)cc1)C(=O)O [Example 6, (2S)-2-(Propane-1-sulfonylamino)-3-(4-(2-(1,4,5,6-tetrahydropyrimidin-2-ylcarbamoyl)-ethyl)-benzoylamino)-propionic acid]	32
O=C(CCc1ccc(C(=O)NC[C@H](NS(=O)(=O)/C=C/c2ccccc2)C(=O)O)cc1)NC1=NCCCN1 [Example 7, (2S)-2-(2-Phenyl-ethenesulfonylamino)-3-(4-(2-(1,4,5,6-tetrahydropyrimidin-2-ylcarbamoyl)-ethyl)-benzoylamino)-propionic acid]	28
CC(C)CS(=O)(=O)N[C@@H](CNC(=O)c1ccc(CCC(=O)NC2=NCCCN2)cc1)C(=O)O [Example 9, (2S)-2-(2-Methyl-propane-1-sulfonylamino)-3-(4-(2-(1,4,5,6-tetrahydropyrimidin-2-ylcarbamoyl)-ethyl)-benzoylamino)-propionic acid]	69
CCCCOc1ccc(S(=O)(=O)N[C@@H](CNC(=O)c2ccc(CCC(=O)NC3=NCCCN3)cc2)C(=O)O)cc1 [Example 10, (2S)-2-(4-Butoxy-benzenesulfonylamino)-3-(4-(2-(1,4,5,6-tetrahydropyrimidin-2-ylcarbamoyl)-ethyl)-benzoylamino)-propionic acid]	29
CC1(C)C2CCC1(CS(=O)(=O)N[C@@H](CNC(=O)c1ccc(CCC(=O)NC3=NCCCN3)cc1)C(=O)O)C(=O)C2 (stereo partly drawn) [Example 12, (2S)-2-(7,7-Dimethyl-2-oxo-bicyclo[2.2.1]hept-1-ylmethanesulfonylamino)-3-(4-(2-(1,4,5,6-tetrahydropyrimidin-2-ylcarbamoyl)-ethyl)-benzoylamino)-propionic acid]	27
O=C(CCc1ccc(C(=O)NC[C@H](NS(=O)(=O)c2cccc(C(F)(F)F)c2)C(=O)O)cc1)NC1=NCCCN1 [Example 15, (2S)-3-(4-(2-(1,4,5,6-Tetrahydropyrimidin-2-ylcarbamoyl)-ethyl)-benzoylamino)-2-(3-trifluoromethyl-benzenesulfonylamino)-propionic acid]	6
O=C(CCc1ccc(C(=O)NC[C@H](NS(=O)(=O)c2cccs2)C(=O)O)cc1)NC1=NCCCN1 [Example 18, (2S)-3-(4-(2-(1,4,5,6-Tetrahydropyrimidin-2-ylcarbamoyl)-ethyl)-benzoylamino)-2-(thiophene-2-sulfonylamino)-propionic acid]	14
Cc1cc(C)c(S(=O)(=O)N[C@@H](CNC(=O)c2ccc(CCC(=O)NC3=NCCCN3)cc2)C(=O)O)c(C)c1 [Example 21, (2S)-3-(4-(2-(1,4,5,6-Tetrahydropyrimidin-2-ylcarbamoyl)-ethyl)-benzoylamino)-2-(2,4,6-trimethyl-benzenesulfonylamino)-propionic acid]	21
CCCCS(=O)(=O)N[C@@H](CNC(=O)c1ccc(CCC(=O)NC2=NCCCN2)cc1)C(=O)O [Example 23, (2S)-2-(Butane-1-sulfonylamino)-3-(4-(2-(1,4,5,6-tetrahydropyrimidin-2-ylcarbamoyl)-ethyl)-benzoylamino)-propionic acid]	30
CS(=O)(=O)N[C@@H](CNC(=O)c1ccc(CCC(=O)NC2=NCCCN2)cc1)C(=O)O [Example 24, (2S)-2-Methanesulfonylamino-3-(4-(2-(1,4,5,6-tetrahydropyrimidin-2-ylcarbamoyl)-ethyl)-benzoylamino)-propionic acid]	100

The remaining lines, values ahead:

IC50 [nM]	Compound
6	O=C(CCc1ccc(C(=O)NC[C@H](NS(=O)(=O)c2cccc3ccccc23)C(=O)O)cc1)NC1=NCCCN1 [Example 1, (2S)-2-(Naphthalene-1-sulfonylamino)-3-(4-(2-(1,4,5,6-tetrahydropyrimidin-2-ylcarbamoyl)-ethyl)-benzoylamino)-propionic acid]
52	O=C(CCc1ccc(C(=O)NC[C@H](NS(=O)(=O)c2cccc3cccnc23)C(=O)O)cc1)NC1=NCCCN1 [Example 2, (2S)-2-(Quinoline-8-sulfonylamino)-3-(4-(2-(1,4,5,6-tetrahydropyrimidin-2-ylcarbamoyl)-ethyl)-benzoylamino)-propionic acid]
27	CC(=O)Nc1ccc(S(=O)(=O)N[C@@H](CNC(=O)c2ccc(CCC(=O)NC3=NCCCN3)cc2)C(=O)O)cc1 [Example 3, (2S)-2-(4-Acetylamino-benzenesulfonylamino)-3-(4-(2-(1,4,5,6-tetrahydropyrimidin-2-ylcarbamoyl)-ethyl)-benzoylamino)-propionic acid]
20	CCCc1ccc(S(=O)(=O)N[C@@H](CNC(=O)c2ccc(CCC(=O)NC3=NCCCN3)cc2)C(=O)O)cc1 [Example 8, (2S)-2-(4-Propyl-benzenesulfonylamino)-3-(4-(2-(1,4,5,6-tetrahydropyrimidin-2-ylcarbamoyl)-ethyl)-benzoylamino)-propionic acid]
24	N#Cc1ccccc1S(=O)(=O)N[C@@H](CNC(=O)c1ccc(CCC(=O)NC2=NCCCN2)cc1)C(=O)O [Example 11, (2S)-2-(2-Cyano-benzenesulfonylamino)-3-(4-(2-(1,4,5,6-tetrahydropyrimidin-2-ylcarbamoyl)-ethyl)-benzoylamino)-propionic acid]
27	O=C(CCc1ccc(C(=O)NC[C@H](NS(=O)(=O)c2ccc(Cl)cc2)C(=O)O)cc1)NC1=NCCCN1 [Example 13, (2S)-^2-(4-Chloro-benzenesulfonylamino)-3-(4-(2-(1,4,5,6-tetrahydropyrimidin-2-ylcarbamoyl)-ethyl)-benzoylamino)-propionic acid]
10	O=C(CCc1ccc(C(=O)NC[C@H](NS(=O)(=O)c2cccc(Cl)c2)C(=O)O)cc1)NC1=NCCCN1 [Example 14, (2S)-2-(3-Chloro-benzenesulfonylamino)-3-(4-(2-(1,4,5,6-tetrahydropyrimidin-2-ylcarbamoyl)-ethyl)-benzoylamino)-propionic acid]
26	COc1ccc(S(=O)(=O)N[C@@H](CNC(=O)c2ccc(CCC(=O)NC3=NCCCN3)cc2)C(=O)O)cc1 [Example 16, (2S)-2-(4-Methoxy-benzenesulfonylamino)-3-(4-(2-(1,4,5,6-tetrahydropyrimidin-2-ylcarbamoyl)-ethyl)-benzoylamino)-propionic acid]
9	O=C(CCc1ccc(C(=O)NC[C@H](NS(=O)(=O)c2ccccc2)C(=O)O)cc1)NC1=NCCCN1 [Example 17, (2S)-2-Benzenesulfonylamino-3-(4-(2-(1,4,5,6-tetrahydropyrimidin-2-ylcarbamoyl)-ethyl)-benzoylamino)-propionic acid]
38	O=C(CCc1ccc(C(=O)NC[C@H](NS(=O)(=O)c2ccc(-c3ccccc3)cc2)C(=O)O)cc1)NC1=NCCCN1 [Example 19, (2S)-2-(Biphenyl-4-sulfonylamino)-3-(4-(2-(1,4,5,6-tetrahydropyrimidin-2-ylcarbamoyl)-ethyl)-benzoylamino)-propionic acid]
5	O=C(CCc1ccc(C(=O)NC[C@H](NS(=O)(=O)c2ccc3ccccc3c2)C(=O)O)cc1)NC1=NCCCN1 [Example 20, (2S)-2-(Naphthalene-2-sulfonylamino)-3-(4-(2-(1,4,5,6-tetrahydropyrimidin-2-ylcarbamoyl)-ethyl)-benzoylamino)-propionic acid]
10	O=C(CCc1ccc(C(=O)NC[C@H](NS(=O)(=O)c2ccc(C(F)(F)F)cc2)C(=O)O)cc1)NC1=NCCCN1 [Example 22, (2S)-3-(4-(2-(1,4,5,6-Tetrahydropyrimidin-2-ylcarbamoyl)-ethyl)-benzoylamino)-2-(4-trifluoromethyl-benzenesulfonylamino)-propionic acid]
